From patent US3985758A, “1,4-Dihydropyridine derivatives” (Yamanouchi Pharmaceutical Co., Ltd., priority 1973, dated 1976)
≈ marks a conversion by molar mass, not a printed value. Counter-ions that a name gives are not always drawn. Like-named read-outs stand apart in the source and are kept apart here.

Assays:
in vivo [1] = conditions: mouse, in vivo, iv
Method: (§1) LD50 was determined by using mice.
(§2) 2. Acute toxicity in mice
(§3) Male ICR weighing 25 to 32 g were used. The test compounds were injected into tail vein and LD 50 values were determined.

mice = test: in vivo; conditions: i.v.; mice
Method: as §1, §2, §3

vertebral artery = test: Direct vasodilating effect on vertebral artery, constant volume perfusion; type: in vivo, mongrel dog; conditions: intra-arterial
Description: (§4) Heparin (1000 μ/Kg, i.v.) was used as an anticoagulant. The methods for perfusion of each artery were as following: 1) For the vertebral artery, the arterial blood led from the left common carotid artery was collected by the tygon tubing and perfused by the Sigma-motor pump (Mippleport N.Y. T-8) into the right vertebral artery. 2) For the femoral artery, the arterial blood led from the proximal femoral artery was perfused by the Sigma-motor pump into the distal femoral artery. […] All drugs were given into a rubber tube connected close to the each arterial cannula by a microinjector (Jintan Terumo, NSN-100).

femoral artery = test: Direct vasodilating effect on femoral artery, constant volume perfusion; type: in vivo, mongrel dog; conditions: intra-arterial; ±SE; maximum response to papaverine 3000 μg i.a. = 100%
Description: For the analysis of the selective effect on vasculature by the drugs, direct effect on cerebral (vertebral artery) and peripheral (femoral artery) vascular bed were studied by the method of the constant volume perfusion.
as §4

guinea-pig ileum = test: Spasmolytic activity in isolated guinea-pig ileum (Magnus apparatus); conditions: Cavia porcellus, ±S.E.
Method: Methods: Isolated guinea-pig ileum was suspended in Tyrodes solution by use of Magnus apparatus and the movements of the muscle were recorded in a kymograph by an isotonic lever.

[2] = Solubility in water at 25° C; type: physicochemical
[3] = system: vertebral and femoral blood flow; test: Vertebral and femoral blood flow in anesthetized dogs; type: in vivo, mongrel dog; conditions: 0.01 mg/kg i.v. (0.01 or 0.03 mg/kg); for Blood pressure change (Δ mmHg): femoral artery; for Separation ratio (percent increase of vertebral blood flow / that of femoral blood flow): significance vs SKF 24260
Method: Vertebral and femoral blood flow in anesthetized dogs.
Mongrel dogs of both sexes weighing from 12 to 27 kg were anesthetized with sodium pentobarbitol (30 mg/kg i.v.). In all experiments, trachea was cannulated and the animals were artificially ventilated with room air. Blood pressure in cannulated femoral artery was measured by means of a pressure transducer (Nihon Kohden, MPU 0.5). Vertebral and femoral blood flow were measured by a noncannulating electromagnetic flowmeter (Nihon Kohden, MF-25) positioned around the vessels. Recordings were made on an ink-writing polygraph (Nihon Kohden, RM-150 or RM-85). The test compounds were injected at a dose of 0.01 mg/kg into femoral vein.

in vivo [4] = conditions: dog, iv
[5] = U.S. Pat. No. 3,511,837; cited from earlier work
[6] = cited from earlier work

Compound: COC(=O)C1=C(C)NC(C)=C(C(=O)OCCN(C)Cc2ccccc2)C1c1cccc([N+](=O)[O-])c1 (stereo not drawn) [Example 2, 2,6-dimethyl-4-(3'-nitrophenyl)-1,4-dihydropyridine-3,5-dicarboxylic acid 3-β-(N-benzyl-N-methylamino)ethyl ester 5-methyl ester hydrochloride]
- LD50 (in vivo [1]): 20.7 mg/kg
- LD50 (mice): 20.7 mg/kg
- Selectivity ratio (ED50 in femoral artery/ED50 in vertebral artery) (vertebral artery; anesthetized dogs): 1.30
- Vasodilation ED50, vertebral artery (vertebral artery; ±SE, maximum response to papaverine 3000 μg i.a. = 100%): 0.66 ± 0.20 µg
- Vasodilation ED50, femoral artery (femoral artery): 0.86 ± 0.11 µg
- IC50 (guinea-pig ileum; read-out: Spasmolytic activity, 50% inhibition of contractile response, Acetylchloline 10^-7 g/ml): 5.2 ng/mL
- IC50 (guinea-pig ileum; read-out: Spasmolytic activity, 50% inhibition of contractile response, BaCl2 2×10^-4 g/ml): 1.9 ng/mL
- IC50 (guinea-pig ileum; read-out: Spasmolytic activity, 50% inhibition of contractile response, Histamine 10^-7 g/ml): 1.8 ng/mL
- pH (of solubility determination) ([2]; compounds of the present invention, 25° C): 3.92
- solubility ([2]; compounds of the present invention, 25° C, at the given pH, read-out: Solubility): 4900 µg/mL
- Femoral blood flow (FBF %) [3]: 51 ± 5.8%
- Vertebral blood flow (VBF Δ %) [3]: 200 ± 27.3 Δ %
- Blood pressure change (Δ mmHg) [3]: -29 ± 3.6 Δ mmHg
- Separation ratio (percent increase of vertebral blood flow / that of femoral blood flow) [3]: 4.19 ± 0.69
- LD50 (in vivo [4]): 6.1 mg/kg
- Heart rate (Δbeats/min.±SE) (anesthetized dogs; 0.0003 mg/Kg i.v.): 4±1.3 Δbeats/min.
- Mean blood pressure (ΔmmHg±SE) (anesthetized dogs; 0.0003 mg/Kg i.v.): -1±0.6 ΔmmHg
- Vertebral blood flow (Δ%±SE) (anesthetized dogs; 0.0003 mg/Kg i.v.): 27±4.4 Δ%
- Heart rate (Δbeats/min.±SE) (anesthetized dogs; 0.001 mg/Kg i.v.): 12±2.2 Δbeats/min.
- Mean blood pressure (ΔmmHg±SE) (anesthetized dogs; 0.001 mg/Kg i.v.): -7±1.5 ΔmmHg
- Vertebral blood flow (Δ%±SE) (anesthetized dogs; 0.001 mg/Kg i.v.): 61±9.5 Δ%
- Heart rate (Δbeats/min.±SE) (anesthetized dogs; 0.003 mg/Kg i.v.): 18±2.0 Δbeats/min.
- Mean blood pressure (ΔmmHg±SE) (anesthetized dogs; 0.003 mg/Kg i.v.): -14±2.2 ΔmmHg
- Vertebral blood flow (Δ%±SE) (anesthetized dogs; 0.003 mg/Kg i.v.): 132±13.8 Δ%
- Heart rate (Δbeats/min.±SE) (anesthetized dogs; 0.01 mg/Kg i.v.): 25±5.3 Δbeats/min.
- Mean blood pressure (ΔmmHg±SE) (anesthetized dogs; 0.01 mg/Kg i.v.): -29±3.6 ΔmmHg
- Vertebral blood flow (Δ%±SE) (anesthetized dogs; 0.01 mg/Kg i.v.): 200±27.3 Δ%

Compound: CCOC(=O)C1=C(C)NC(C)=C(C(=O)OCC)C1c1ccccc1C(F)(F)F [SKF 24260, 3,5-dicarbethoxy-1,4-dihydro-2,6-dimethyl-4-(2-trifluoromethylphenyl) pyridine, reference compound]
- LD50 (in vivo [1]): 0.8 mg/kg
- pH (of solubility determination) ([2]; known compounds, 25° C): 5.40
- solubility ([2]; known compounds, 25° C, at the given pH, read-out: Solubility): 10 µg/mL (≈ 25.2 µM)
- solubility ([2]; known compounds, pH 4.00, 25° C, read-out: Solubility at pH 4.00): 10 µg/mL (≈ 25.2 µM)
- Femoral blood flow (FBF %) [3]: 165 ± 40%
- Vertebral blood flow (VBF Δ %) [3]: 144 ± 17.7 Δ %
- Blood pressure change (Δ mmHg) [3]: -44 ± 4.8 Δ mmHg
- Separation ratio (percent increase of vertebral blood flow / that of femoral blood flow) [3]: 0.93 ± 0.11
- Hypotensive activity [5]: shows hypotensive activity
- Water-solubility (in words) [6]: very poorly water-soluble
